Measured values taken from US10934302B1, “SHP2 phosphatase inhibitors and methods of use thereof” (Relay Therapeutics, Inc., priority 2018, dated 2021).

Biological target: SHP2 (Homo sapiens (Human), UniProt Q06124)
Test: SHP2 allosteric inhibition assay (DiFMUP prompt fluorescence)
Assay type: biochemical
Conditions: 0.25 nM SHP2 activated with 0.5 μM peptide IRS1_pY1172(dPEG8)pY1222; substrate DiFMUP

Chain of SHP2 (Q06124 whole entry): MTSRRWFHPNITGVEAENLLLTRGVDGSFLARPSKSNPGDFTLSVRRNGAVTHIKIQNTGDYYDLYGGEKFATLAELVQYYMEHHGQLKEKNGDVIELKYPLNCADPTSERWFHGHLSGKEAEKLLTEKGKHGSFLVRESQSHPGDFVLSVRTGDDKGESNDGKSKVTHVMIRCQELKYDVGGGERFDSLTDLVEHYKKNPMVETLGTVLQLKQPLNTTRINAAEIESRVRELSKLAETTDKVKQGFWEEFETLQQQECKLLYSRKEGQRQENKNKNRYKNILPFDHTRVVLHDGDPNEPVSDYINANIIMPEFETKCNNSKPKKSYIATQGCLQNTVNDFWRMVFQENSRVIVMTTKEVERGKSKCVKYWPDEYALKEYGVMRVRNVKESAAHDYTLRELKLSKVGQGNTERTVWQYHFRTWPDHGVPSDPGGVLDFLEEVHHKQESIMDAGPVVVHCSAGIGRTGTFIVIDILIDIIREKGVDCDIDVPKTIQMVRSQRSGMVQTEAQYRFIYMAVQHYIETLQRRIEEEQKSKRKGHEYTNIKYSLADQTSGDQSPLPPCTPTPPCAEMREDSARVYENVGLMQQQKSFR

| Compound | IC50 [nM] |
| --- | --- |
| N[C@@H]1c2ccccc2OC12CCN(c1nc3[nH]ncc3nc1CO)CC2 [Example 159, {6-[(3R)-3-amino-3H-spiro[1-benzofuran-2,4′-piperidin]-1′-yl]-1H-pyrazolo[3,4-b]pyrazin-5-yl}methanol] | ≤ 50 |
| Cc1nc2c(N3CCOCC3)n[nH]c2nc1N1CCC2(CC1)Cc1ccccc1[C@H]2N [Example 160, (3S)-1′-[5-methyl-3-(morpholin-4-yl)-1H-pyrazolo[3,4-b]pyrazin-6-yl]-1,3-dihydrospiro[indene-2,4′-piperidin]-3-amine] | ≤ 50 |
| Cc1nc2c(N3CCCCC3)n[nH]c2nc1N1CCC2(CC1)Oc1ccccc1[C@H]2N [Example 162, (3R)-1′-[5-methyl-3-(piperidin-1-yl)-1H-pyrazolo[3,4-b]pyrazin-6-yl]-3H-spiro[1-benzofuran-2,4′-piperidin]-3-amine] | > 10000 |
| Cc1nc2c(C#N)n[nH]c2nc1N1CCC2(CC1)Cc1ccccc1[C@H]2N [Example 163, 6-[(3S)-3-amino-1,3-dihydrospiro[indene-2,4′-piperidin]-1′-yl]-5-methyl-1H-pyrazolo[3,4-b]pyrazine-3-carbonitrile] | 1000 to 10000 |
| Cc1nc2c(C3=CCOCC3)n[nH]c2nc1N1CCC2(CC1)Cc1ccccc1[C@H]2N [Example 167, (3S)-1′-[3-(3,6-dihydro-2H-pyran-4-yl)-5-methyl-1H-pyrazolo[3,4-b]pyrazin-6-yl]-1,3-dihydrospiro[indene-2,4′-piperidin]-3-amine] | ≤ 50 |
| N[C@@H]1c2ccccc2CC12CCN(c1cnc(SC3CCCC3)cn1)CC2 [Example 168, (3S)-1′-[5-(cyclopentylsulfanyl)pyrazin-2-yl]-1,3-dihydrospiro[indene-2,4′-piperidin]-3-amine] | ≤ 50 |
| N[C@@H]1c2ccccc2CC12CCN(c1cn3ccnc3cn1)CC2 [Example 169, (3S)-1′-{imidazo[1,2-a]pyrazin-6-yl}-1,3-dihydrospiro[indene-2,4′-piperidin]-3-amine] | 1000 to 10000 |
| CCSc1cnc(N2CCC3(CC2)Cc2ccccc2[C@H]3N)cn1 [Example 170, (3S)-1′-[5-(ethylsulfanyl)pyrazin-2-yl]-1,3-dihydrospiro[indene-2,4′-piperidin]-3-amine] | 50 to 1000 |
| N[C@@H]1c2ccccc2CC12CCN(c1cnc(OCC3CC3)cn1)CC2 [Example 171, (3S)-1′-[5-(cyclopropylmethoxy)pyrazin-2-yl]-1,3-dihydrospiro[indene-2,4′-piperidin]-3-amine] | ≤ 50 |
| N[C@H]1c2ccccc2C[C@]12CC=C(c1cnc3c(N4CCCc5ncccc54)n[nH]c3n1)CC2 [Example 174, (1R,1′R)-4-(3-(3,4-dihydro-1,5-naphthyridin-1(2H)-yl)-1H-pyrazolo[3,4-b]pyrazin-6-yl)-1′,3′-dihydrospiro[cyclohex[3]ene-1,2′-inden]-1′-amine] | ≤ 50 |
| N[C@@H]1c2ccccc2C[C@]12CC=C(c1cnc3c(N4CCCc5ncccc54)n[nH]c3n1)CC2 [Example 175, (1S,1'S)-4-(3-(3,4-dihydro-1,5-naphthyridin-1(2H)-yl)-1H-pyrazolo[3,4-b]pyrazin-6-yl)-1′,3′-dihydrospiro[cyclohex[3]ene-1,2′-inden]-1′-amine] | 1000 to 10000 |
| Nc1nccc(Sc2cnc(N3CCC4(CC3)Oc3ccccc3[C@H]4N)cn2)c1Cl [Example 177] | ≤ 50 |
| Cn1c(N2CCC3(CC2)Cc2ccccc2[C@H]3N)nc2[nH]nc(Sc3cccc(Cl)c3Cl)c2c1=O [Example 178] | > 10000 |
| N[C@@H]1c2ccccc2CC12CCN(c1cnc3ccccc3n1)CC2 [Example 179] | ≤ 50 |
| N[C@@H]1c2ccccc2CC12CCN(c1nccn3ccnc13)CC2 [Example 180] | 1000 to 10000 |
| Cn1ncc2c(N3CCC4(CC3)Cc3ccccc3[C@H]4N)ncnc21 [Example 181] | 1000 to 10000 |
| Cn1cc2c(N3CCC4(CC3)Cc3ccccc3[C@H]4N)ncnc2n1 [Example 182] | > 10000 |
| Cn1cnc2ccnc(N3CCC4(CC3)Cc3ccccc3[C@H]4N)c21 [Example 183] | > 10000 |
| Cn1cnc2c(N3CCC4(CC3)Cc3ccccc3[C@H]4N)ncnc21 [Example 184] | 50 to 1000 |
| N[C@@H]1c2ccccc2CC12CCN(c1cnc(SC3CCOCC3)cn1)CC2 [Example 185, (S)-1′-(5-((tetrahydro-2H-pyran-4-yl)thio)pyrazin-2-yl)-1,3-dihydrospiro[indene-2,4′-piperidin]-1-amine] | 1000 to 10000 |
| Cc1nc2c(N3CCC(F)(F)CC3)n[nH]c2nc1N1CCC2(CC1)Cc1ccccc1[C@H]2N [Example 186, (3S)-1′-[3-(4,4-difluoropiperidin-1-yl)-5-methyl-1H-pyrazolo[3,4-b]pyrazin-6-yl]-1,3-dihydrospiro[indene-2,4′-piperidin]-3-amine] | ≤ 50 |
| Nc1nccc(Oc2cnc(N3CCC4(CC3)Oc3ccccc3[C@H]4N)cn2)c1Cl [Example 187, (3R)-1′-{5-[(2-amino-3-chloropyridin-4-yl)oxy]pyrazin-2-yl}-3H-spiro[1-benzofuran-2,4′-piperidin]-3-amine] | ≤ 50 |
| N[C@@H]1c2ccccc2CC12CCN(c1cnc3c(ccn3-c3cccc4ncccc34)n1)CC2 [Example 192, (3S)-1′-[5-(quinolin-5-yl)-5H-pyrrolo[2,3-b]pyrazin-2-yl]-1,3-dihydrospiro[indene-2,4′-piperidin]-3-amine] | 1000 to 10000 |
| Cc1nc2c(ccn2C2=CCOCC2)nc1N1CCC2(CC1)Cc1ccccc1[C@H]2N [Example 193, (3S)-1′-[5-(3,6-dihydro-2H-pyran-4-yl)-3-methyl-5H-pyrrolo[2,3-b]pyrazin-2-yl]-1,3-dihydrospiro[indene-2,4′-piperidin]-3-amine] | ≤ 50 |
| Cc1nc2c(ccn2-c2cccc3ncccc23)nc1N1CCC2(CC1)Cc1ccccc1[C@H]2N [Example 194, (3S)-1′-[3-methyl-5-(quinolin-5-yl)-5H-pyrrolo[2,3-b]pyrazin-2-yl]-1,3-dihydrospiro[indene-2,4′-piperidin]-3-amine] | ≤ 50 |
| N[C@@H]1c2ccccc2CC12CCN(c1ncnc3c1cnn3-c1ccccc1)CC2 [Example 195, (3S)-1′-{1-phenyl-1Hpyrazolo[3,4-d]pyrimidin-4-yl}-1,3-dihydrospiro[indene-2,4′-piperidin]-3-amine] | ≤ 50 |

| Compound | IC50 [nM] |
| --- | --- |
| Cc1nc(N2CCCc3ncccc32)cnc1N1CCC2(CC1)Cc1ccccc1[C@H]2N [Example 196] | ≤ 50 |
| Cc1nc(N2CCC3(CC2)Cc2ccccc2[C@H]3N)cnc1N1CCCc2ncccc21 [Example 197] | ≤ 50 |
| N[C@@H]1c2ccccc2CC12CCN(c1cnc(OCc3cccc4cccnc34)cn1)CC2 [Example 198] | > 10000 |
| Cc1c(NCc2cccnc2)ccnc1N1CCC2(CC1)Cc1ccccc1[C@H]2N [Example 199] | ≤ 50 |
| Cn1nccc1-c1cc(N2CCC3(CC2)Cc2ccccc2[C@H]3N)cn2ccnc12 [Example 201] | ≤ 50 |
| N[C@@H]1c2ccccc2CC12CCN(c1cc(OC(F)F)c3nccn3c1)CC2 [Example 202] | ≤ 50 |
| Cc1nc2c(cnn2-c2cccc3c(=O)n(C)ccc23)nc1N1CCC2(CC1)Oc1ccccc1[C@H]2N [Example 203] | ≤ 50 |
| N[C@@H]1c2ccccc2CC12CCN(C(=O)c1csc(N3CCCCC3)n1)CC2 [Example 204] | ≤ 50 |
| Cn1c(N2CCC3(CC2)Cc2ccccc2[C@H]3N)ncc(N2CCCc3ccccc32)c1=O [Example 205] | 50 to 1000 |
| Cn1c(N2CCC3(CC2)Cc2ccccc2[C@H]3N)ccc(N2CCCc3ccccc32)c1=O [Example 206] | ≤ 50 |
| Cc1c(N2CCCc3ccccc32)nc2sc(N3CCC4(CC3)Cc3ccccc3[C@H]4N)nn12 [Example 207] | 1000 to 10000 |
| Cc1nc2c(N3CCCCC3)n[nH]c2nc1N1CCC2(CC1)Oc1ccc(F)cc1[C@H]2N [Example 208] | 1000 to 10000 |
| N[C@@H]1c2ccccc2CC12CCN(c1ccc3c(N4CCCCC4)n[nH]c3n1)CC2 [Example 209] | 1000 to 10000 |
| N[C@@H]1c2ccccc2CC12CCN(c1ncc(N3CCCc4ccccc43)c(=O)[nH]1)CC2 [Example 210] | > 10000 |
| N[C@@H]1c2ccccc2CC12CCN(c1ncc(N3CCCc4ncccc43)nc1CO)CC2 [Example 211, {3-[(3S)-3-amino-1,3-dihydrospiro[indene-2,4′-piperidin]-1′-yl]-6-(1,2,3,4-tetrahydro-1,5-naphthyridin-1-yl)pyrazin-2-yl}methanol] | 50 to 1000 |
| N[C@@H]1c2ccccc2CC12CCN(c1ncc(N3CCCc4ccccc43)nc1CO)CC2 [Example 212, {3-[(3S)-3-amino-1,3-dihydrospiro[indene-2,4′-piperidin]-1′-yl]-6-(1,2,3,4-tetrahydroquinolin-1-yl)pyrazin-2-yl}methanol] | ≤ 50 |
| N[C@@H]1c2ccccc2CC12CCN(c1ncc(N3CCc4ccccc43)nc1CO)CC2 [Example 213, (S)-(3-(1-amino-1,3-dihydrospiro[indene-2,4′-piperidin]-1′-yl)-6-(indolin-1-yl)pyrazin-2-yl) methanol] | 50 to 1000 |
| N[C@@H]1c2ccccc2CC12CCN(c1ncc(N3CCCCc4ccccc43)nc1CO)CC2 [Example 214, (S)-(3-(1-amino-1,3-dihydrospiro[indene-2,4′-piperidin]-1′-yl)-6-(2,3,4,5-tetrahydro-1H-benzo[b]azepin-1-yl)pyrazin-2-yl)methanol] | ≤ 50 |
| Cc1nc(N2CCC3(CC2)Cc2ccccc2[C@H]3N)c(C)nc1Sc1ccnc(N)c1Cl [Example 215] | ≤ 50 |
| Nc1nccc(Sc2ccc(N3CCC4(CC3)Oc3ccccc3[C@H]4N)cn2)c1Cl [Example 216] | 50 to 1000 |
| Nc1nccc(Sc2ccc(N3CCC4(CC3)Cc3cc(F)ccc3[C@H]4N)cn2)c1Cl [Example 217] | ≤ 50 |
| Nc1nccc(Sc2ccc(N3CCC4(CC3)Cc3ccc(F)cc3[C@H]4N)cn2)c1Cl [Example 218] | ≤ 50 |
| Cc1cc(N2CCC3(CC2)Cc2ccccc2[C@H]3N)cnc1Sc1ccnc(N)c1Cl [Example 219] | ≤ 50 |
| N#Cc1nc(Sc2ccnc(Cl)c2Cl)cnc1N1CCC2(CC1)Cc1ccccc1[C@H]2N [Example 220] | ≤ 50 |
| Nc1nccc(Sc2cnc3c(n2)OC[C@H]2C[C@@]4(CCN32)Oc2ccccc2[C@@H]4N)c1Cl [Example 221] | ≤ 50 |
